Experiments:
Test in all cases: Flow cytometry of platelet antigen expression, platelet rich plasma
Type in all cases: cell-based, human
CPIa-IIa = conditions: for CPIa-IIa (mean) log fluorescence intensity / CPIa-IIa (peak) log fluorescence intensity: PRP
From the text: (§1) For ex vivo assessment of the SSRIs effect on a PAM, a level of a PAM can be assessed by flow cytometry by first obtaining a sample that comprises platelets and then contacting the sample with a platelet activation agonist, such as phorbol myristate acetate (PMA), ADP (adenosine diphosphate), thrombin, collagen, and/or TRAP (thrombin receptor activating peptide), under conditions suitable for activation of platelets in the sample. The sample is in contact with the agonist preferably for a period of time effective to maximally activate the platelets. […] NDMS at 31.1, 64.1 or 143 ng./ml). Then one contacts or stains the samples with a composition that comprises an anti-PAM antibody e.g., having a fluorescent label, preferably in an amount in excess of that required to bind the PAM expressed on the platelets, under conditions suitable for the formation of labeled complexes between the anti-PAM antibody and activated platelets. Then the formation of the complex in the sample is determined (detected or measured). […] The blood-ACD mixture was centrifuged at 1000 r.p.m. for 10 minutes at room temperature. […] The PRP was then centrifuged at 3000 r.p.m. for 10 minutes. […] All cells were then divided into ten plastic capped tubes. Nine portions of washed platelets were incubated with 5 μfluorescein isothiocyanate (FITC)-conjugated antibodies in the dark at +4 °C for 30 minutes, and one part remained unstained and served as a negative control. Surface antigen expression was measured with monoclonal murine anti-human antibodies: CD9 (p24); CD41a (IIb/IIIa, aIIIbb3); CD42b (Ib); CD61(IIIa) (DAKO Corporation, Carpinteria Calif.); CD49b (VLA-2, or a2b1); CD62p (P-selectin); CD31 (PECAM-1); […] The instrument was calibrated daily with fluorescence beads (CaliBRITE; Becton Dickinson) and measured FITC-conjugated fluorescence intensity. All parameters were obtained using four decade logarithmic amplification. The data was collected and stored in list mode, and then analyzed using CELLQuest® (version 1.2.2) software. Procedures are described in detail in (Gurbel, P. […] Serebruany, V. […] Gurbel, P. A. et al., Coron Artery Dis 9: 451-456 (1998) and Serebruany, V. L. et al., Arterioscl Thromb Vasc Biol 19: 153-158 (1999)). The data in table 1 was obtained using the methods described herein, and in particular, in Examples 1 and 2. The levels of various PAMs were assess from samples of human volunteers.

GP IIIa = conditions: PRP
From the text: as §1

GP IIb = conditions: PRP
From the text: as §1

GP Ib = conditions: for GP Ib (mean) log fluorescence intensity / GP Ib (peak) log fluorescence intensity: PRP
From the text: as §1

PECAM-1 = conditions: for PECAM-1 (mean) log fluorescence intensity / PECAM-1 (peak) log fluorescence intensity: PRP
From the text: as §1

Vitronectin receptor = conditions: for Vitronectin (mean) log fluorescence intensity / Vitronectin (peak) log fluorescence intensity: PRP
From the text: For ex vivo assessment of the SSRIs effect on a PAM, a level of a PAM can be assessed by flow cytometry by first obtaining a sample that comprises platelets and then contacting the sample with a platelet activation agonist, such as phorbol myristate acetate (PMA), ADP (adenosine diphosphate), thrombin, collagen, and/or TRAP (thrombin receptor activating peptide), under conditions suitable for activation of platelets in the sample. The sample is in contact with the agonist preferably for a period of time effective to maximally activate the platelets. […] Then the formation of the complex in the sample is determined (detected or measured). […] The blood-ACD mixture was centrifuged at 1000 r.p.m. for 10 minutes at room temperature. […] The PRP was then centrifuged at 3000 r.p.m. for 10 minutes. […] All cells were then divided into ten plastic capped tubes. Nine portions of washed platelets were incubated with 5 μfluorescein isothiocyanate (FITC)-conjugated antibodies in the dark at +4 °C for 30 minutes, and one part remained unstained and served as a negative control. […] The instrument was calibrated daily with fluorescence beads (CaliBRITE; Becton Dickinson) and measured FITC-conjugated fluorescence intensity. All parameters were obtained using four decade logarithmic amplification. The data was collected and stored in list mode, and then analyzed using CELLQuest® (version 1.2.2) software. Procedures are described in detail in (Gurbel, P. […] Serebruany, V. […] The levels of various PAMs were assess from samples of human volunteers.

[1] = healthy volunteers, sertraline 18.1 ng/ml
[2] = healthy volunteers, sertraline 44.7 ng/ml
[3] = healthy volunteers, sertraline 85.3 ng/ml
[4] = post-angioplasty patient on aspirin, sertraline 18.1 ng/ml
[5] = post-angioplasty patient on aspirin, sertraline 44.7 ng/ml
[6] = post-angioplasty patient on aspirin, sertraline 85.3 ng/ml
[7] = plasma concentration 85.3 ng/ml, equivalent to 200 mg/daily

CN[C@H]1CC[C@@H](c2ccc(Cl)c(Cl)c2)c2ccccc21 [sertraline]
CPIa-IIa (mean) log fluorescence intensity (CPIa-IIa; [1]): 51 | CPIa-IIa (peak) log fluorescence intensity (CPIa-IIa; [1]): 47 | CPIa-IIa (mean) log fluorescence intensity (CPIa-IIa; [2]): 49 | CPIa-IIa (peak) log fluorescence intensity (CPIa-IIa; [2]): 37 | CPIa-IIa (mean) log fluorescence intensity (CPIa-IIa; [3]): 35 | CPIa-IIa (peak) log fluorescence intensity (CPIa-IIa; [3]): 30 | CPIa-IIa (mean) log fluorescence intensity (CPIa-IIa; [4]): 63 | CPIa-IIa (peak) log fluorescence intensity (CPIa-IIa; [4]): 55 | CPIa-IIa (mean) log fluorescence intensity (CPIa-IIa; [5]): 70 | CPIa-IIa (peak) log fluorescence intensity (CPIa-IIa; [5]): 60 | CPIa-IIa (mean) log fluorescence intensity (CPIa-IIa; [6]): 67 | CPIa-IIa (peak) log fluorescence intensity (CPIa-IIa; [6]): 60 | surface expression of very late antigen-2 (VLA-2, or GPIb-IIa), in words (CPIa-IIa; [7]): diminished surface expression | GP IIIa (mean) log fluorescence intensity (GP IIIa; [1]): 1389 | GP IIIa (peak) log fluorescence intensity (GP IIIa; [1]): 1197 | GP IIIa (mean) log fluorescence intensity (GP IIIa; [2]): 1197 | GP IIIa (peak) log fluorescence intensity (GP IIIa; [2]): 1084 | GP IIIa (mean) log fluorescence intensity (GP IIIa; [3]): 816 | GP IIIa (peak) log fluorescence intensity (GP IIIa; [3]): 704 | GP IIIa (mean) log fluorescence intensity (GP IIIa; [4]): 1247 | GP IIIa (peak) log fluorescence intensity (GP IIIa; [4]): 1114 | GP IIIa (mean) log fluorescence intensity (GP IIIa; [5]): 1404 | GP IIIa (peak) log fluorescence intensity (GP IIIa; [5]): 1370 | GP IIIa (mean) log fluorescence intensity (GP IIIa; [6]): 1321 | GP IIIa (peak) log fluorescence intensity (GP IIIa; [6]): 1310 | GP IIb (mean) log fluorescence intensity (GP IIb; [1]): 31 | GP IIb (peak) log fluorescence intensity (GP IIb; [1]): 26 | GP IIb (mean) log fluorescence intensity (GP IIb; [2]): 31 | GP IIb (peak) log fluorescence intensity (GP IIb; [2]): 35 | GP IIb (mean) log fluorescence intensity (GP IIb; [3]): 30 | GP IIb (peak) log fluorescence intensity (GP IIb; [3]): 22 | GP IIb (mean) log fluorescence intensity (GP IIb; [4]): 30 | GP IIb (peak) log fluorescence intensity (GP IIb; [4]): 29 | GP IIb (mean) log fluorescence intensity (GP IIb; [5]): 27 | GP IIb (peak) log fluorescence intensity (GP IIb; [5]): 31 | GP IIb (mean) log fluorescence intensity (GP IIb; [6]): 37 | GP IIb (peak) log fluorescence intensity (GP IIb; [6]): 34 | GPIb expression, flow cytometric graph (FIG. 8), in words (GP Ib; 18.1, 44.7 or 85.5 ng/mL of sertraline): dose dependent decrease in the expression | GP Ib (mean) log fluorescence intensity (GP Ib; [1]): 139 | GP Ib (peak) log fluorescence intensity (GP Ib; [1]): 125 | GP Ib (mean) log fluorescence intensity (GP Ib; [2]): 97 | GP Ib (peak) log fluorescence intensity (GP Ib; [2]): 74 | GP Ib (mean) log fluorescence intensity (GP Ib; [3]): 65 | GP Ib (peak) log fluorescence intensity (GP Ib; [3]): 67 | GP Ib (mean) log fluorescence intensity (GP Ib; [4]): 324 | GP Ib (peak) log fluorescence intensity (GP Ib; [4]): 305 | GP Ib (mean) log fluorescence intensity (GP Ib; [5]): 220 | GP Ib (peak) log fluorescence intensity (GP Ib; [5]): 257 | GP Ib (mean) log fluorescence intensity (GP Ib; [6]): 182 | GP Ib (peak) log fluorescence intensity (GP Ib; [6]): 186 | surface expression of GPIb, in words (GP Ib; [7]): diminished surface expression | PECAM-1 expression, flow cytometric graph (FIG. 10), in words (PECAM-1; 44.7, 85.3 ng/mL of sertraline): dose dependent decrease in the expression | PECAM-1 (mean) log fluorescence intensity (PECAM-1; [1]): 117 | PECAM-1 (peak) log fluorescence intensity (PECAM-1; [1]): 88 | PECAM-1 (mean) log fluorescence intensity (PECAM-1; [2]): 104 | PECAM-1 (peak) log fluorescence intensity (PECAM-1; [2]): 71 | PECAM-1 (mean) log fluorescence intensity (PECAM-1; [3]): 84 | PECAM-1 (peak) log fluorescence intensity (PECAM-1; [3]): 66 | PECAM-1 (mean) log fluorescence intensity (PECAM-1; [4]): 94 | PECAM-1 (peak) log fluorescence intensity (PECAM-1; [4]): 76 | PECAM-1 (mean) log fluorescence intensity (PECAM-1; [5]): 99 | PECAM-1 (peak) log fluorescence intensity (PECAM-1; [5]): 98 | PECAM-1 (mean) log fluorescence intensity (PECAM-1; [6]): 97 | PECAM-1 (peak) log fluorescence intensity (PECAM-1; [6]): 93 | surface expression of PECAM-1, in words (PECAM-1; [7]): diminished surface expression | Vitronectin (mean) log fluorescence intensity (Vitronectin receptor; [1]): 810 | Vitronectin (mean) log fluorescence intensity (Vitronectin receptor; [2]): 510 | Vitronectin (mean) log fluorescence intensity (Vitronectin receptor; [3]): 667 | Vitronectin (mean) log fluorescence intensity (Vitronectin receptor; [4]): 405 | Vitronectin (mean) log fluorescence intensity (Vitronectin receptor; [5]): 344 | Vitronectin (peak) log fluorescence intensity (Vitronectin receptor; [5]): 393 | Vitronectin (mean) log fluorescence intensity (Vitronectin receptor; [6]): 529 | Vitronectin (peak) log fluorescence intensity (Vitronectin receptor; [6]): 585 | surface expression of vitronectin receptor, in words (Vitronectin receptor; [7]): diminished surface expression

Reference: patent US6552014B2, “Methods of inhibiting platelet activation with selective serotonin reuptake inhibitors” (HeartDrug Research, L.L.C., priority 1999, dated 2003)
